Calls of active or inactive are those of the source. The calls are words filed in the database; no cut-off is given here.
Columns and labels:
[1] = target: T1, Adrenergic receptor alpha (Rattus norvegicus) (UniProt P15823+P23944+P43140+P22086+P19328+P22909); assay: Irreversible inhibition of alpha adrenergic receptor in rat vas deferens assessed as inhibition of NE-induced contractions at 2 x 10' -5 M after 30 mins relative to [N,N'-bis(o-methoxybenzylamino-n-hexyl)cystamine; assay type: tissue-based
[2] = target: T1, Adrenergic receptor alpha (Rattus norvegicus); assay: Irreversible inhibition of alpha adrenergic receptor in rat vas deferens assessed as inhibition of NE-induced contractions at 2 x 10' -5 M after 30 mins relative to N1,N1'-(2,2'-disulfanediylbis(ethane-2,1-diyl))dioctane-1,8-diamine tetrahydrochloride; assay type: tissue-based
Cavia porcellus [3] = species on record: Cavia porcellus; assay: Antagonist activity at muscarinic receptor in guinea pig atrium assessed as reduction in butyrylcholine-induced response; assay type: tissue-based; settings: Cardiac atrium
Cavia porcellus [4] = species on record: Cavia porcellus; assay: Antagonist activity at alpha adrenergic receptor in guinea pig atrium assessed as reduction in tyramine-mediated ionotropic/chronotropic potency; assay type: tissue-based; settings: Cardiac atrium
Cavia porcellus [5] = species on record: Cavia porcellus; assay: Antagonist activity at alpha adrenergic receptor in guinea pig atrium assessed as inhibition of 30 uM NE-induced contractions treated at 0.147 uM; assay type: tissue-based; settings: Cardiac atrium
Cavia porcellus [6] = species on record: Cavia porcellus; assay: Potentiation of NE-mediated alpha adrenergic receptor activity in guinea pig atrium; assay type: tissue-based; settings: Cardiac atrium
Cavia porcellus [7] = species on record: Cavia porcellus; assay: Antagonist activity at alpha adrenergic receptor in guinea pig atrium assessed as inhibition of 300 uM NE-induced contractions treated at 0.147 uM; assay type: tissue-based; settings: Cardiac atrium
Oryctolagus cuniculus [8] = species on record: Oryctolagus cuniculus; assay: Effect on beta adrenergic receptor in potassium-contracted rabbit aortic strip assessed as change in isoprenaline-mediated response at 10 uM after 30 mins
Cavia porcellus [9] = species on record: Cavia porcellus; assay: Antagonist activity at alpha adrenergic receptor in guinea pig atrium assessed as inhibition of 30 uM NE-induced contractions treated at 3 uM for 30 mins followed by washout; assay type: tissue-based; settings: Cardiac atrium
Cavia porcellus [10] = species on record: Cavia porcellus; assay: Antagonist activity at alpha adrenergic receptor in guinea pig atrium assessed as reduction in tyramine-mediated ionotropic/chronotropic potency at 10 to 30 uM; assay type: tissue-based; settings: Cardiac atrium
Cavia porcellus [11] = species on record: Cavia porcellus; assay: Potentiation of NE-mediated alpha adrenergic receptor activity in guinea pig atrium at 10 to 30 uM; assay type: tissue-based; settings: Cardiac atrium
Cavia porcellus [12] = species on record: Cavia porcellus; assay: Effect on muscarinic receptor in guinea pig atrium assessed as reduction in carbachol-mediated ionotropic/chronotropic potency at 30 uM after 26 mins; assay type: tissue-based; settings: Cardiac atrium
Oryctolagus cuniculus [13] = species on record: Oryctolagus cuniculus; assay: Irreversible inhibition of alpha adrenergic receptor in rabbit aortic strip assessed as inhibition of NE-induced contractions at 1 to 3 uM after 18 hrs
Cavia porcellus [14] = species on record: Cavia porcellus; assay: Antagonist activity at muscarinic receptor in guinea pig atrium assessed as reduction in butyrylcholine-induced response at 10 to 30 uM; assay type: tissue-based; settings: Cardiac atrium
Cavia porcellus [15] = species on record: Cavia porcellus; assay: Effect on muscarinic acetylcholine receptor in guinea pig ileum assessed as reduction in acetylcholine-induced contractile response at 7 uM after 20 to 40 mins; assay type: tissue-based; set-up: scale not given: the % may be the effect or the level left
Cavia porcellus [16] = species on record: Cavia porcellus; assay: Effect on muscarinic acetylcholine receptor in guinea pig ileum assessed as reduction in acetylcholine-induced contractile response treated at 30 uM for 40 mins measured after 20 mins post washout; assay type: tissue-based
Oryctolagus cuniculus [17] = species on record: Oryctolagus cuniculus; assay: Irreversible inhibition of alpha adrenergic receptor in rabbit aortic strip assessed as inhibition of NE-induced contractions at 0.3 uM after 90 mins
Cavia porcellus [18] = species on record: Cavia porcellus; assay: Effect on muscarinic receptor in guinea pig atrium assessed as reduction in carbachol-mediated ionotropic/chronotropic potency at 0.24 uM after 30 to 60 mins; assay type: tissue-based; set-up: scale not given: the % may be the effect or the level left; settings: Cardiac atrium
Oryctolagus cuniculus [19] = species on record: Oryctolagus cuniculus; assay: Effect on histamine receptor in potassium-contracted rabbit aortic strip assessed as change in histamine-mediated response at 10 uM after 30 mins
Oryctolagus cuniculus [20] = species on record: Oryctolagus cuniculus; assay: Effect on 5-HT receptor in potassium-contracted rabbit aortic strip assessed as change in 5-HT-mediated response at 10 uM after 30 mins
[21] = target: T1, Adrenergic receptor alpha (Rattus norvegicus); assay: Irreversible inhibition of alpha adrenergic receptor in rat vas deferens assessed as inhibition of NE-induced contractions at <20 uM after 30 mins; assay type: tissue-based
Cavia porcellus [22] = species on record: Cavia porcellus; assay: Effect on muscarinic receptor in guinea pig atrium assessed as reduction in carbachol-mediated ionotropic/chronotropic potency at 0.17 uM after 30 to 60 mins; assay type: tissue-based; set-up: scale not given: the % may be the effect or the level left; settings: Cardiac atrium
Cavia porcellus [23] = species on record: Cavia porcellus; assay: Effect on muscarinic receptor in guinea pig atrium assessed as reduction in carbachol-mediated ionotropic/chronotropic potency at 10 uM after 17 mins; assay type: tissue-based; settings: Cardiac atrium

Row | inhibition [1] | inhibition [2] | Compound | also measured
1 | 76% | 76% | COc1ccc(OC)c(CNCCCCCCNCCSSCCNCCCCCCNCc2cc(OC)ccc2OC)c1 | –
2 | 36% | 36% | Clc1ccccc1CNCCCCCCCNCCSSCCNCCCCCCCNCc1ccccc1Cl | –
3 | – | – | CC(COc1ccccc1)N(CCCl)Cc1ccccc1 (stereo not drawn) | inhibition (Cavia porcellus [3]): Active; inhibition (Cavia porcellus [4]): Active; inhibition (Cavia porcellus [5]): Active; Activity (Cavia porcellus [6]): Active; inhibition (Cavia porcellus [7]): Active
4 | 39% | 39% | Clc1cccc(Cl)c1CNCCCCCCCNCCSSCCNCCCCCCCNCc1c(Cl)cccc1Cl | –
5 | 10% | 10% | NCCCCCNCCSSCCNCCCCCN | –
6 | 63% | 63% | NCCCCCCCNCCSSCCNCCCCCCCN | –
7 | 24% | 24% | NCCCCCCCCCCCCNCCSSCCNCCCCCCCCCCCCN | –
8 | 90% | 90% | c1ccc(CNCCCCCCNCCSSCCNCCCCCCNCc2ccccc2)cc1 | –
9 | 56% | 56% | NCCCCCCCCCCNCCSSCCNCCCCCCCCCCN | –
10 | 49% | 49% | Cc1ccccc1CNCCCCCCCCNCCSSCCNCCCCCCCCNCc1ccccc1C | –
11 | – | 100% | COc1ccccc1CNCCCCCCNCCSSCCNCCCCCCNCc1ccccc1OC | Activity (Oryctolagus cuniculus [8]): inactive; inhibition (Cavia porcellus [9]): inactive; inhibition (Cavia porcellus [10]): inactive; Activity (Cavia porcellus [11]): inactive; Activity (Cavia porcellus [12]): inactive; inhibition (Oryctolagus cuniculus [13]): Active; inhibition (Cavia porcellus [14]): inactive; Activity (Cavia porcellus [15]): 50%; Activity (Cavia porcellus [16]): inactive; inhibition (Oryctolagus cuniculus [17]): Active; Activity (Cavia porcellus [18]): 50%; Activity (Oryctolagus cuniculus [19]): inactive; Activity (Oryctolagus cuniculus [20]): inactive
12 | 59% | 59% | COc1ccccc1CNCCCCCNCCSSCCNCCCCCNCc1ccccc1OC | –
13 | 90% | 90% | CN(CCCCCCCCN)CCSSCCN(C)CCCCCCCCN | –
14 | 92% | 92% | NCCCCCCCCCNCCSSCCNCCCCCCCCCN | –
15 | 71% | 71% | COc1ccccc1CNCCCCCCCNCCSSCCNCCCCCCCNCc1ccccc1OC | –
16 | 81% | 81% | COc1ccc(CNCCCCCCNCCSSCCNCCCCCCNCc2ccc(OC)cc2)cc1 | –
17 | 26% | 26% | COc1ccc(CNCCCCCCNCCSSCCNCCCCCCNCc2ccc(OC)cc2OC)c(OC)c1 | –

Row | inhibition [1] | inhibition [2] | Compound | also measured
18 | 58% | 58% | c1ccc(CNCCCCCCCNCCSSCCNCCCCCCCNCc2ccccc2)cc1 | –
19 | 44% | 44% | Clc1ccccc1CNCCCCCCNCCSSCCNCCCCCCNCc1ccccc1Cl | –
20 | 69% | 69% | Cc1ccccc1CNCCCCCCNCCSSCCNCCCCCCNCc1ccccc1C | –
21 | 81% | 81% | CCOc1ccccc1CNCCCCCCNCCSSCCNCCCCCCNCc1ccccc1OCC | –
22 | 41% | 41% | COc1cc(CNCCCCCCNCCSSCCNCCCCCCNCc2cc(OC)cc(OC)c2)cc(OC)c1 | –
23 | 98% | 98% | Oc1ccc(CNCCCCCCNCCSSCCNCCCCCCNCc2ccc(O)c(O)c2)cc1O | –
24 | 72% | 72% | COc1cccc(CNCCCCCCNCCSSCCNCCCCCCNCc2cccc(OC)c2)c1 | –
25 | 24% | 24% | COc1ccc(CNCCCCCCNCCSSCCNCCCCCCNCc2ccc(OC)c(OC)c2)cc1OC | –
26 | 26% | 26% | COc1cccc(CNCCCCCCNCCSSCCNCCCCCCNCc2cccc(OC)c2OC)c1OC | –
27 | 71% | 71% | C=CCOc1ccccc1CNCCCCCCNCCSSCCNCCCCCCNCc1ccccc1OCC=C | –
28 | 41% | 41% | COc1ccccc1CNCCCCCCCCNCCSSCCNCCCCCCCCNCc1ccccc1OC | –
29 | 27% | 27% | NCCCCCCNCCSSCCNCCCCCCN | –
30 | 100% | – | NCCCCCCCCNCCSSCCNCCCCCCCCN | inhibition [21]: Active
31 | 40% | 40% | Clc1cccc(Cl)c1CNCCCCCCNCCSSCCNCCCCCCNCc1c(Cl)cccc1Cl | –
32 | – | – | COc1ccccc1CNCCCCCCNCCCCCCNCCCCCCNCc1ccccc1OC | Activity (Cavia porcellus [22]): 50%; Activity (Cavia porcellus [23]): inactive
33 | 48% | 48% | COc1ccccc1CNCCCCCCN(C)CCSSCCN(C)CCCCCCNCc1ccccc1OC | –
34 | 56% | 56% | Cc1ccccc1CNCCCCCCCNCCSSCCNCCCCCCCNCc1ccccc1C | –

— ChEMBL document CHEMBL3272229, “Molecular properties of the adrenergic alpha receptor. 2. Optimum covalent inhibition by two different prototypes of polyamine disulfides” (J Med Chem, 1978)
